Our source for the IC50, AC50 and EC50 values is ChEMBL document CHEMBL1201862, “PubChem BioAssay data set” (2004).

Calls of active or inactive are those of the source. Some results are limits rather than exact numbers.

Test [1] deals with Voltage-gated N-type calcium channel alpha-1B subunit/Amyloid beta A4 precursor protein-binding family A member 1 (Homo sapiens, UniProt Q00975+Q02410). Put plainly: disruptors of Mint-PDZ/N-type channel peptide interaction – biochemical, HTRF, set 2, SAR follow-up (AID 434980). The class given is functional. (In TR-FRET formats the signal depends on donor and acceptor labels being close together.)

Test [2] addresses Acyl-homoserine lactone acylase PvdQ (Pseudomonas aeruginosa (strain LESB58), UniProt Q9I194). Nature of the test: PvdQ acylase enzyme activity blockers – biochemical, fluorescence, plate reader and imaging, cherry-picks, dose response (AID 493231).
Test [3] concerns the target G-protein coupled receptor 35 (Homo sapiens, UniProt Q9HC97). Put plainly: SAR analysis of Antagonists of the GPR35 Receptor using an Image-Based Assay - Set 5. [Related pubchem assays (depositor defined):AID2058, AID2079]. The class given is functional.
The target of test [4] is Luciferin 4-monooxygenase (Photinus pyralis, UniProt P08659). Put plainly: inhibition of purified Photinus pyralis luciferase – biochemical, luminescence, dose response (AID 1891).
Test [5] can be described thus: Luminescence Cell-Based Dose Confirmation HTS to Identify Inhibitors of Platelet Dense Granule Release. [Related pubchem assays: 1663 (Primary HTS), 1678 (Summary of Project)]. The class given is functional.
Test [6] addresses G-protein coupled receptor 55 (Homo sapiens, UniProt Q9Y2T6). Put plainly: SAR Analysis of Selective Antagonists of GPR55 using an Image-Based Assay - Set 3. [Related pubchem assays (depositor defined):AID2058, AID2079]. The class given is functional.
Test [7] has as its target Eukaryotic translation initiation factor 4H (Homo sapiens, UniProt Q15056). Nature of the test: inhibitors of translation initiation factor eIF4H – SAR follow-up (AID 435011). The format is functional.
The target of test [8] is Polyadenylate-binding protein 1 (Homo sapiens, UniProt P11940). Nature of the test: PABP inhibition in translation initiation, SAR follow-up (AID 435018). The class given is functional.
In test [9] the target is T1, Heat shock factor protein 1 (Mus musculus, UniProt P38532).
T1 sequence (P38532 whole entry): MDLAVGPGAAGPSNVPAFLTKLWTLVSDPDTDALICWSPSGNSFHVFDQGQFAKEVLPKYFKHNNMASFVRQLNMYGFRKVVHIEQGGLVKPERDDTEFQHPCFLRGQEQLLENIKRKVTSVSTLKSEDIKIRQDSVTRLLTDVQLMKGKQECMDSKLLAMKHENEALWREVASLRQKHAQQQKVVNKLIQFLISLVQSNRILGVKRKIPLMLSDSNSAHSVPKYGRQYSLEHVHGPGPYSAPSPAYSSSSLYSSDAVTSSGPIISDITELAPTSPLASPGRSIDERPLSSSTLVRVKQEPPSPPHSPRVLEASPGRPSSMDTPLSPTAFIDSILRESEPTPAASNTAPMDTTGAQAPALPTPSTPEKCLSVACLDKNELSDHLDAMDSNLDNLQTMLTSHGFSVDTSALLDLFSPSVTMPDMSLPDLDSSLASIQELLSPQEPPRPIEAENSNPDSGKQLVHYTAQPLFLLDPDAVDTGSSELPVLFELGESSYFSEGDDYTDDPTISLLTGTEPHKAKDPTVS
Put plainly: enhancement of HSF1-driven luciferase signal – cell-based, NIH3T3, luminescence, dose retest, confirmation (AID 435004).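 Further: stress induced by proteasome inhibitor MG132 added 30 min after compound; luciferase reporter driven by HSF1 response element in NIH3T3 cells; actives raise luminescence as potentiators of the MG132 stress response.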 The format is functional.

Test [10] deals with Neurotensin receptor type 1 (Homo sapiens, UniProt P30989). The format is functional.
The target of a further test is Wee1-like protein kinase (Homo sapiens, UniProt P30291). Put plainly: HeLa cell cycle G2/M accumulation – FACS, mechanism study for Wee1 degradation inhibitor project, late-stage follow-up, panel member Wee1 Degradation (AID 2088).
The target in test [11] is G2/mitotic-specific cyclin-B1 (Homo sapiens, UniProt P14635). Nature of the test: HeLa cell cycle G2/M accumulation – FACS, mechanism study for Wee1 degradation inhibitor project, late-stage follow-up, panel member Cyclin B Degradation (AID 2088).
Test [12] addresses Potassium voltage-gated channel subfamily KQT member 2 (Rattus norvegicus, UniProt O88943). Nature of the test: potentiation of rat KCNQ2 current – cell-based, retigabine-insensitive compounds, dose response (AID 2654). The format is functional.
The target in test [13] is T2, Neuropeptides B/W receptor type 1 (Homo sapiens, UniProt P48145).
T2 sequence (P48145 whole entry): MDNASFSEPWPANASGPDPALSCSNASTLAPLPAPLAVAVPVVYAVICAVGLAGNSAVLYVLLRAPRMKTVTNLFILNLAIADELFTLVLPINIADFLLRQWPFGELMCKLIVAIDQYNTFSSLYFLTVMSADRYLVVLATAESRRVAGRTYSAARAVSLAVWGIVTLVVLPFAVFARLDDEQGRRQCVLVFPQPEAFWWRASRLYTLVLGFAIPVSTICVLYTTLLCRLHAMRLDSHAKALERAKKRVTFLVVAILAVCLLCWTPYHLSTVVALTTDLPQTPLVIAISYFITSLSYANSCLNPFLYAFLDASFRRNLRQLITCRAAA
Nature of the test: human NPBW1 receptor blockade, IC50 – cell-based, fluorescence, dose response, late-stage follow-up (AID 463251). The class given is functional.

Test [14] addresses Melanin-concentrating hormone receptor 1 (Homo sapiens, UniProt Q99705). Nature of the test: Late-stage fluorescence-based counterscreen for antagonists of the G-protein coupled receptor 7 (GPR7): cell-based dose response assay to identify antagonists of the melanin-concentrating hormone receptor 1 (MCHR1). [Related pubchem assays (depositor defined):AID1861, AID1880, AID1952, AID2148, AID2251, AID2257, AID485339]. The class given is functional. For orientation: A counterscreen serves to expose hits that act by an unwanted route or on another target.

Test [15] can be described thus: ADP-Glo luciferase signal interference – biochemical, luminescence, cherry-picked samples, set 2, artefact control for CDK5 inhibitor project, dose response (AID 504546). The format is functional, cell-based. On the technique in general: In ADP-Glo the light output rises with the ADP produced.
Test [16] concerns the target T1, Heat shock factor protein 1. Put plainly: decrease of HSF1-responsive luciferase luminescence – cell-based, NIH3T3, dose retest, confirmation (AID 2382).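 Further: NIH3T3 fibroblasts with HSF1-driven luciferase reporter stressed by proteasome inhibitor MG132; luminescence from HSF1-driven luciferase expression after 8 hours of MG132 stress.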 The format is functional.
The nature of test [17]: general cell-killing toxicity readout – plate reader, dry powder samples, cytotoxicity control for PAX8 inhibitor project, dose response (AID 743021). The class given is functional, cell-based.
The target in test [18] is Cyclin-dependent kinase 5/CDK5 activator 1 (Homo sapiens, UniProt Q00535). Nature of the test: blockade of human CDK5 activity – biochemical, cherry-picked samples, set 2, dose response (AID 504545).
Another test has as its target Paired box protein Pax-8 (Homo sapiens, UniProt Q06710). Nature of the test: PAX8 transcriptional activity inhibition in RMG-I – RMG-I cells, luciferase, cherry-pick, dose response (AID 687027).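 Further: luciferase reporter driven by Pax8 target thyroperoxidase promoter measured by SteadyGlo luminescence.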 The class given is functional, cell-based.
Test [19] is described as follows: HEK-293T viability loss after treatment – luminescence, T-cell screen hits, cytotoxicity control for TCR NF-kB inhibitor project, dose response (AID 489026).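 Further: cells exposed to compound about 14 hours before the viability readout.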 The class given is functional, cell-based.
In test [20] the target is Protein phosphatase methylesterase 1 (Homo sapiens, UniProt Q9Y570). Put plainly: endogenous PME-1 and serine hydrolase inhibition – cell lysate, mouse brain cytosol, FP-rhodamine, gel ABPP, selectivity assay for PME-1 inhibitor project, dose response, panel member PME-1 Assay Panel member description: Inhibition of endogenously expressed PME-1 (AID 2366).

Luciferin 4-monooxygenase, sequence (P08659 whole entry): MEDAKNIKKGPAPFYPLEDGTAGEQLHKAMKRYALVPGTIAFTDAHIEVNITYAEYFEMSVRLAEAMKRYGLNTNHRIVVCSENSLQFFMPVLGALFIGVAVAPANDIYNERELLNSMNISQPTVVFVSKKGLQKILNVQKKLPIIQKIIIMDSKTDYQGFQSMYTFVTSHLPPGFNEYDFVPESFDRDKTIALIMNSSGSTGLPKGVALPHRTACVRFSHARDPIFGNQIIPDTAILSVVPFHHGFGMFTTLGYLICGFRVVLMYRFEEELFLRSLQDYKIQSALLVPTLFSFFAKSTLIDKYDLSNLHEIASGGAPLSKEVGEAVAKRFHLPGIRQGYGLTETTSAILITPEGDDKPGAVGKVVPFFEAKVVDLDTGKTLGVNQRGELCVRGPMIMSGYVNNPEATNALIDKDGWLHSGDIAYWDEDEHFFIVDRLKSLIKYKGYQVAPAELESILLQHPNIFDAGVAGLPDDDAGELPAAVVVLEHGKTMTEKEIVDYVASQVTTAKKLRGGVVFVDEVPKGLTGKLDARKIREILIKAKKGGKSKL
Melanin-concentrating hormone receptor 1, sequence (Q99705 whole entry): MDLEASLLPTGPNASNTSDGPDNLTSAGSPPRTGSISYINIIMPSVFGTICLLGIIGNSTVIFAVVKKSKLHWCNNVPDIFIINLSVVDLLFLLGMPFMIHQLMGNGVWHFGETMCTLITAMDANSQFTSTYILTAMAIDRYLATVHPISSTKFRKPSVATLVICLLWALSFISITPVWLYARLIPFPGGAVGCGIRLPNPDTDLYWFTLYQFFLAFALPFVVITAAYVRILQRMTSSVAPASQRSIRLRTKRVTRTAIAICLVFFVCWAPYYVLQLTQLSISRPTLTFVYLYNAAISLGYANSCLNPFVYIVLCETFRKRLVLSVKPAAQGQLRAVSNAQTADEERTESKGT
Neurotensin receptor type 1, sequence (P30989 whole entry): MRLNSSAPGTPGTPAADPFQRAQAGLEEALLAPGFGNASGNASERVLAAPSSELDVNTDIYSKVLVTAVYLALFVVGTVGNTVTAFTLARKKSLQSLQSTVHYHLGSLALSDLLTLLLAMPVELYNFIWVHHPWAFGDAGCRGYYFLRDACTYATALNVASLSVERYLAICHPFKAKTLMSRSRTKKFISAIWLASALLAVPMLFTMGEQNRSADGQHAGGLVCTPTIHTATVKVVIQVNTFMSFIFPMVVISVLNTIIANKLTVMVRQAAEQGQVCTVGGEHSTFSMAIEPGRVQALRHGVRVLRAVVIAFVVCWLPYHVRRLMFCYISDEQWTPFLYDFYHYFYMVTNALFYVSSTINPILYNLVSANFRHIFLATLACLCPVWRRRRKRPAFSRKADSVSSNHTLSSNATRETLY
G-protein coupled receptor 55, sequence (Q9Y2T6 whole entry): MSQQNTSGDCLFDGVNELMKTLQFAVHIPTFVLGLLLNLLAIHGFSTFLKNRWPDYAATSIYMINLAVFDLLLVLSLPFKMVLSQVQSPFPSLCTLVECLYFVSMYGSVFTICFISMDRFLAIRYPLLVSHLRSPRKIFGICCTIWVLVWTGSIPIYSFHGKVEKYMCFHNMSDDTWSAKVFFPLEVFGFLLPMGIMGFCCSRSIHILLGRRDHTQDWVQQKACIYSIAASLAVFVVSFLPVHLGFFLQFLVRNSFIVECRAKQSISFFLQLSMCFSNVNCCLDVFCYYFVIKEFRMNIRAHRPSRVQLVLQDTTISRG
G-protein coupled receptor 35, sequence (Q9HC97 whole entry): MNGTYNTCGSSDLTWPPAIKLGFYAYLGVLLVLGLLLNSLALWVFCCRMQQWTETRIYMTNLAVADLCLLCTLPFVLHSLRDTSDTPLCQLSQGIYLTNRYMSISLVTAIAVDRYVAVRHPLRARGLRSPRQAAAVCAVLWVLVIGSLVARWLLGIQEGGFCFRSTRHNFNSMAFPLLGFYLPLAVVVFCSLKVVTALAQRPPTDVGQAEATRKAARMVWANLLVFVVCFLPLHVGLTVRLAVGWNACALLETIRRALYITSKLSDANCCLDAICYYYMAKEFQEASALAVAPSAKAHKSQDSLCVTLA
Cyclin-dependent kinase 5/CDK5 activator 1, sequence (Q00535 whole entry): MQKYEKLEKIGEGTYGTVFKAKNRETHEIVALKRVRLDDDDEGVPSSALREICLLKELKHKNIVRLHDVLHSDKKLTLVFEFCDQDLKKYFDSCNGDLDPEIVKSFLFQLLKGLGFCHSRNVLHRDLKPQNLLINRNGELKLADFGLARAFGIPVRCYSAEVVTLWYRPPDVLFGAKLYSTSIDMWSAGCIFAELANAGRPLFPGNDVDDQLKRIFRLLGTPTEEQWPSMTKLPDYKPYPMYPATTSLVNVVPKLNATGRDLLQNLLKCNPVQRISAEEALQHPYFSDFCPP
Cyclin-dependent kinase 5/CDK5 activator 1, sequence (Q15078 whole entry, further chain): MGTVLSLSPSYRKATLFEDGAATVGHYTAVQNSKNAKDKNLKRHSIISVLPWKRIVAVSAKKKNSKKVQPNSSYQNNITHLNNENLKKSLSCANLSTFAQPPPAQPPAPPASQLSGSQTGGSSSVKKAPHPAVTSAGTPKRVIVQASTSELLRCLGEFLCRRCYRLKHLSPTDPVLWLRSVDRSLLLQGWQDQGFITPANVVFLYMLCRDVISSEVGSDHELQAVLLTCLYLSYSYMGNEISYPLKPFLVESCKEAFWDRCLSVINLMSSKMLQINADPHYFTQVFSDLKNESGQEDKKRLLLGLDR
Potassium voltage-gated channel subfamily KQT member 2, sequence (O88943 whole entry): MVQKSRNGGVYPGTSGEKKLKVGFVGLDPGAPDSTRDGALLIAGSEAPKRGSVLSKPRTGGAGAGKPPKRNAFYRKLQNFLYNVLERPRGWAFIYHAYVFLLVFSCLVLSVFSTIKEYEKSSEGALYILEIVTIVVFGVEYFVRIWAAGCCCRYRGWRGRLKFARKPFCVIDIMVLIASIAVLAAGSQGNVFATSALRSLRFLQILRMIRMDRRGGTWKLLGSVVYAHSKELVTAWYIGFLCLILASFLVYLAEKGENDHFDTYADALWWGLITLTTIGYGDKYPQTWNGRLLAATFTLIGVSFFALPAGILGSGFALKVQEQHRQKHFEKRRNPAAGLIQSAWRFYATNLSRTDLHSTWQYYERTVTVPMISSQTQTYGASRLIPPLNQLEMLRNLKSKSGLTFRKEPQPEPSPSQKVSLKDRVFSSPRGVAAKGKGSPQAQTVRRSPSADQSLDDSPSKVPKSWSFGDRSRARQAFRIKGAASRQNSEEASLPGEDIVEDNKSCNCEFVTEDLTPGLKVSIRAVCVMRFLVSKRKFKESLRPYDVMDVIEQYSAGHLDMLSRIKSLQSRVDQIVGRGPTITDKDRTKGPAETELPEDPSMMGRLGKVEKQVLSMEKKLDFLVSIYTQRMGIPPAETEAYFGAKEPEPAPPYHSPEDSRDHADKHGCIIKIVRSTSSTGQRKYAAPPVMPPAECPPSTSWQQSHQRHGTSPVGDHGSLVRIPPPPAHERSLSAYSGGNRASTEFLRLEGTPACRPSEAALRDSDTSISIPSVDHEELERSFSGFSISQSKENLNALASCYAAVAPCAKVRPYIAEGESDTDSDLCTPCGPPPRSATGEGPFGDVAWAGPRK
G2/mitotic-specific cyclin-B1, sequence (P14635 whole entry): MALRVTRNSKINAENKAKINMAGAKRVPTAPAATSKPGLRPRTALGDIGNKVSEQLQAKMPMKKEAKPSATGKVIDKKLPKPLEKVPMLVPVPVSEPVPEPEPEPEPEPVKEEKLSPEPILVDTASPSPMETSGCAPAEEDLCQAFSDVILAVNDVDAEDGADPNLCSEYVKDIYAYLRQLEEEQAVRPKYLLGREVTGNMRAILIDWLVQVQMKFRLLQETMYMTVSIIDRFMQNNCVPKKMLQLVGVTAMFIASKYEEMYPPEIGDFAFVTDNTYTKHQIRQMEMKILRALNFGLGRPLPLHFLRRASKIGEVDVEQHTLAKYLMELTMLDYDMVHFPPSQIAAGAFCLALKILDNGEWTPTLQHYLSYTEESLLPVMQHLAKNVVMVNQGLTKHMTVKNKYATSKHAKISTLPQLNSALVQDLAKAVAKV
Paired box protein Pax-8, sequence (Q06710 whole entry): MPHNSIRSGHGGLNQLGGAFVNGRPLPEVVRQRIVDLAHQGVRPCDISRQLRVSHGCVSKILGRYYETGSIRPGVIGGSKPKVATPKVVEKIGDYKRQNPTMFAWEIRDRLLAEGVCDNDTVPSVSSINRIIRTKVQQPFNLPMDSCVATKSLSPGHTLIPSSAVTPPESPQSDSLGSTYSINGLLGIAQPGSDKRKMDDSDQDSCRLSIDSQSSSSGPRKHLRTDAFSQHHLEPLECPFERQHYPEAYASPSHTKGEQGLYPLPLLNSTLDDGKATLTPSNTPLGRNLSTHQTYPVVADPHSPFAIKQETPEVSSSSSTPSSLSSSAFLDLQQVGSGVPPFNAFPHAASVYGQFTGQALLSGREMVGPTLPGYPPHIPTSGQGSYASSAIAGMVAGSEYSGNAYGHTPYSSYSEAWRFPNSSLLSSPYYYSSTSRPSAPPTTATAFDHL
Polyadenylate-binding protein 1, sequence (P11940 whole entry): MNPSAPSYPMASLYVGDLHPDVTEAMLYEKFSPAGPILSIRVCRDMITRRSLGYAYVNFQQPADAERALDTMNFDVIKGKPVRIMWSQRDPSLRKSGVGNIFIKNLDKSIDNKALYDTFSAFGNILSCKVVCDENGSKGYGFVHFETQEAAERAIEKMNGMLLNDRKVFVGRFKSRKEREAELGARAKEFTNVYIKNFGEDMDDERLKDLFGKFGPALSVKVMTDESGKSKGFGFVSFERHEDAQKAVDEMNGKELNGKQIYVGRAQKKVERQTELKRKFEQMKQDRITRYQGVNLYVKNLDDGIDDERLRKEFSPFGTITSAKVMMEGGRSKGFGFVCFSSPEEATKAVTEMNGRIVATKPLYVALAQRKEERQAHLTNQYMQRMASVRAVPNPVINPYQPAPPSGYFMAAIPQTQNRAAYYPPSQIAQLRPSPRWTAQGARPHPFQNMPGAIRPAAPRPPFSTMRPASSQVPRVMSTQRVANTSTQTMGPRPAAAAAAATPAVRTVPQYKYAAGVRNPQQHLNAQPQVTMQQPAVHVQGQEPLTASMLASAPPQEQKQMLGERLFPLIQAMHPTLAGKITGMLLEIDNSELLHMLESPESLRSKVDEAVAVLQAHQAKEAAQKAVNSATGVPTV

Usually IC50 stands for the midpoint of a concentration-inhibition curve. Regarding `O=C(c1cc(-c2ccco2)nc2ccccc12)N1CCC(N2CCCC2)CC1`, the IC50 in test [1] was > 56.8 µM (inactive).
The term AC50 denotes the midpoint of the concentration-response curve, whichever way the signal moves. Take `N#CC(c1ccc(Cl)nn1)c1ccccc1Cl` (centres undefined): the AC50 in test [2] was 0.944 µM (active).
The EC50 is the concentration giving half of the maximal effect. As for `COC(=O)c1cnn(-c2ccc(F)cc2F)c1/C=N/NC(N)=S`, the IC50 in test [3] and in [6] was > 32 µM (inactive) in each case. Also, the EC50 in [4] and in test [5] was > 112 µM (not active) throughout.
As to `Cc1nnc(NC(=O)CSc2ccc(-c3ccco3)nn2)s1`, the IC50 in test [7] is 6.17 µM (active); in [8], 64.1 µM (active).
On to `CC1(C)CC(=O)C(=Cc2cn(-c3ccccc3)nc2-c2ccccc2)C(=O)C1`, for which the EC50 in test [9] is 20.7 µM (active); in test [10] it was 33.9 µM (inactive).
With `Cc1ccc(OCC(=O)Nc2cc(C)nn2-c2nc(C)cc(O)n2)cc1`, the EC50 on Wee1-like protein kinase is > 16.6 µM (active); in test [11] it was > 49.7 µM (inactive).
Turning to `O=C(Nc1cccc(F)c1)Nc1cncc(F)c1`, in test [12], the EC50 is 6.32 µM (active).
For `COc1nn(-c2cccc(C)c2)c(=O)c(Cl)c1Cl`, the values for the IC50 in test [13] and in [14] were 5.4 µM (active) and 3.1 µM (active), respectively.
Turning to `COc1ccc(C(=O)NNC(=O)c2ccccn2)cc1`, the AC50 is 14.2 µM (active) in test [15], 15.7 µM (active) in test [17], 8.77 µM (active) in [18] and 7.51 µM (active) at Paired box protein Pax-8. The EC50 in [16] is 1.11 µM (active); in test [4], 0.98 µM (active); in test [5], 0.429 µM (active). Moreover, in test [19], the IC50 is > 80 µM (inactive).
For `CC(C)c1cc(C(C)C)c(S(=O)(=O)n2cccc2/C=C(\C#N)S(C)(=O)=O)c(C(C)C)c1`, the IC50 in test [20] was > 20 µM (inactive).
